Assay results taken from patent US20230167075A1, “INTERLEUKIN INHIBITORS” (UNIVERSITY OF GREENWICH, priority 2020, published 2023).

What was measured:
Type in all cases: cell-based, human
IL-4 = experiment: Inhibition of IL-4 release, stimulated CD4-positive T cells
Description: (§1) The compounds of formulae (I), (IA) and (IB) may be investigated for inhibition of pro-inflammatory cytokines Interleukin-2, 4 and 13 in human CD4-positive T cells isolated from fresh isolated PBMCS using a CD4-positive T cell isolation kit.
(§2) CD4-positive T cells stimulated with beads coated with antibodies against CD2, CD3 and CD28 are incubated for 48 hours containing the compounds under investigation, reconstituted in DMSO. The secreted levels of Interleukin-2, 4 and 13 are measured in the cell culture supernatant using a cytometric bead array and the cell viability is measured using an MTT (3-(4,5-dimethylthiazol-2-yl)-2,5-diphenyltetrazolium bromide) assay.
(§3) Secreted IL-4 levels may be measured using electrochemiluminescence (MSD kits, Meso Scale Discovery), while secreted IL-2 levels may be measured using proximity homogenous time-resolved fluorescence (HTRF) and the amount of living cells may be measured by addition of resazurin (PrestoBlue®).

interleukin (IL)-17A = experiment: Inhibition of secreted Interleukin-17A in PMA/ionomycin-stimulated PBMCs (cytometric bead array); settings: PBMCs stimulated with PMA/ionomycin, 24 hours
Description: (§4) The compounds of formulae (I), (IA) and (IB) may be investigated for inhibition of pro-inflammatory cytokines Interleukin (IL)-1p, 2, 4, 6, 8, 13 and 17A, in peripheral blood mononuclear cells (PBMCs) isolated from fresh human buffy coats by centrifugation on Lymphoprep™ (Stemcell Technologies). All human cells are grown in cell culture medium RPMI-1640 supplemented with 1% penicillin/streptomycin and 5% heat inactivated fetal bovine serum.
(§5) PBMCs stimulated with PMA/ionomycin are incubated for 24 hours containing the compounds under investigation, reconstituted in DMSO. The secreted levels of Interleukin-17A are measured in the cell culture supernatant using a cytometric bead array and the cell viability is quantified using Trypan blue.

Interleukin (IL)-1 beta = experiment: Inhibition of secreted Interleukin-1 beta in LPS-stimulated PBMCs (cytometric bead array); settings: PBMCs stimulated with LPS, 24 hours
Description: as §4
as §5, with “LPS (Salmonella enterica serotype typhimurium)” for “PMA/ionomycin”, “dimethyl sulfoxide (DMSO).” for “DMSO.”, “Interleukin-1(3 is” for “Interleukin-17A are”

IL-2 = experiment: Inhibition of IL-2 release, stimulated CD4-positive T cells
Description: as §1, §2, §3

interleukin (IL)-6 = experiment: Inhibition of Interleukin-6 in PBMCs
Description: as §4

interleukin (IL)-8 = experiment: Inhibition of Interleukin-8 in PBMCs
Description: as §4

[1] = Inhibition of cell viability in the IL-2/IL-4 release assays; settings: human; read-out: Max Effect, Inhibition of cell viability
Description: as §2, §3

CD4-positive T cells = experiment: as above
Description: as §2, §3

Compound	level of inhibition of IL-4 (in words) (IL-4)	inhibition of Interleukin IL-17A (interleukin (IL)-17A)	inhibition of Interleukin IL-1 beta (Interleukin (IL)-1 beta)	level of inhibition of IL-2 (in words) (IL-2)	inhibition of Interleukin IL-6 (interleukin (IL)-6)	inhibition of Interleukin IL-8 (interleukin (IL)-8)	cytotoxicity at 48 h [1]	inhibition of cell viability (in words) (CD4-positive T cells)
Nc1nnc(C(c2ccccc2)c2ccccc2)c(N)n1 [3,5-Diamino-6-(diphenylmethyl)-1,2,4-triazine]	good level of inhibition	high inhibition	moderate inhibition	good level of inhibition	moderate inhibition	high inhibition	28%	without significant inhibition
Nc1nnc(-c2sc(Cl)c(Cl)c2Cl)c(N)n1 [3,5-diamino-6-[2-(3,4,5-trichlorothienyl)]-1,2,4-triazine]	–	inhibitory effect	inhibitory effect	–	inhibitory effect	inhibitory effect	–	–
